Assay results published in PMC11781080 (RSC Advances, 2025).

How the values were obtained:
[1] = tested on: A549 cells (EGFR wild-type non-small-cell lung cancer); assay: MTT cell viability assay, A549 cells; assay type: cell-based; details: Homo sapiens, A549, 72 h, read-out: IC50 A549
[2] = tested on: Vero cells (normal kidney epithelial cell); assay: MTT cell viability assay, Vero cells; assay type: cell-based; details: read-out: IC50 Vero, 72 h, mean ± S.E.M., n = 3

IC50 [1]: 13.1 ± 0.8 µM
SMILES: CN(C)C/C=C/C(=O)Nc1cc2c(Nc3ccc(F)c(Cl)c3)ncnc2cc1O[C@H]1CCOC1 [Afatinib]
IC50 [2]: 5.77 ± 1.59 µM
